Test results from PubChem BioAssay AID256 (DTP/NCI, 2004).
Values joined by “and” are separate entries in the source; they are usually repeats but may differ in a detail not shown here. Identical values can stand only once. Toxic doses and inconclusive results are not listed.

System: CD2F1 mice, L1210 leukemia ip, survival T/C
Assay: NCI In Vivo Anticancer Drug Screen. Data for tumor model L1210 Leukemia (intraperitoneal) in CD2F1 (CDF1) mice
Settings: higher = longer survival
Outline: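 Activity against a transplanted murine tumor was judged by comparing the compound group with a vehicle group. The outcome in the treated animals was divided by that in the controls.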

[1] = endpoint: mean survival time, dose: 50.0 mg/kg/injection, schedule: Q01DX009 (ip), vehicle: saline with Tween-80
[2] = endpoint: mean survival time, dose: 100.0 mg/kg/injection, schedule: Q01DX009 (ip), vehicle: saline with Tween-80
[3] = endpoint: mean survival time, dose: 25.0 mg/kg/injection, schedule: Q01DX009 (ip), vehicle: saline with Tween-80

**Q.** Which T/C (endpoint: mean survival time, dose: 5.0 mg/kg/injection, schedule: Q04DX003 (ip), vehicle: water) does the source give for `CC(=O)OCC1OC(OC(C)=O)C(NC(=O)Nc2cccc(N)c2)C(OC(C)=O)C1OC(C)=O` (stereo not drawn) here?
**A.** 102 % of control

**Q.** And the T/C (endpoint: mean survival time, dose: 10.0 mg/kg/injection, schedule: Q04DX003 (ip), vehicle: water)?
**A.** 96 % of control

**Q.** And the T/C (endpoint: mean survival time, dose: 20.0 mg/kg/injection, schedule: Q04DX003 (ip), vehicle: water)?
**A.** 96 % of control

**Q.** What about the T/C (endpoint: mean survival time, dose: 40.0 mg/kg/injection, schedule: Q04DX003 (ip), vehicle: water) of the same compound?
**A.** 96 % of control

**Q.** What about the T/C (endpoint: mean survival time, dose: 80.0 mg/kg/injection, schedule: Q04DX003 (ip), vehicle: water) of the same compound?
**A.** 98 % of control

**Q.** How did the T/C (endpoint: mean survival time, dose: 100.0 mg/kg/injection, schedule: Q01DX001 (ip), vehicle: Klucel (hydroxypropylcellulose) (HPC)) turn out when `CCOC(=O)C1=C(N)CCCC1` was run?
**A.** 96 % of control

**Q.** And the T/C (endpoint: mean survival time, dose: 200.0 mg/kg/injection, schedule: Q01DX001 (ip), vehicle: Klucel (hydroxypropylcellulose) (HPC))?
**A.** 122 % of control

**Q.** And the T/C (endpoint: mean survival time, dose: 400.0 mg/kg/injection, schedule: Q01DX001 (ip), vehicle: Klucel (hydroxypropylcellulose) (HPC))?
**A.** 96 % of control

**Q.** `COc1ccc(S(=O)(=O)N/N=C/C(=O)O)cc1` was tested. Which T/C (endpoint: mean survival time, dose: 6.25 mg/kg/injection, schedule: Q01DX009 (ip), vehicle: saline with Tween-80) did it give?
**A.** 115 % of control

**Q.** What about the T/C (endpoint: mean survival time, dose: 12.5 mg/kg/injection, schedule: Q01DX009 (ip), vehicle: alkali diluted with water) of the same compound?
**A.** 114 % of control

**Q.** What about the T/C (endpoint: mean survival time, dose: 12.5 mg/kg/injection, schedule: Q01DX009 (ip), vehicle: saline with Tween-80) of the same compound?
**A.** 121 % of control

**Q.** What about the T/C (endpoint: mean survival time, dose: 12.5 mg/kg/injection, schedule: Q04DX003 (ip), vehicle: other) of the same compound?
**A.** 109 % of control

**Q.** And the T/C (endpoint: mean survival time, dose: 25.0 mg/kg/injection, schedule: Q01DX009 (ip), vehicle: alkali diluted with water)?
**A.** 116 % of control

**Q.** What about the T/C (endpoint: mean survival time, dose: 25.0 mg/kg/injection, schedule: Q04DX003 (ip), vehicle: other) of the same compound?
**A.** 117 % of control

**Q.** What about the T/C (endpoint: mean survival time, dose: 50.0 mg/kg/injection, schedule: Q01DX009 (ip), vehicle: alkali diluted with water) of the same compound?
**A.** 124 % of control

**Q.** And the T/C [1]?
**A.** 163 % of control

**Q.** What about the T/C (endpoint: mean survival time, dose: 50.0 mg/kg/injection, schedule: Q04DX003 (ip), vehicle: other) of the same compound?
**A.** 124 % of control

**Q.** And the T/C [2]?
**A.** 151 % of control

**Q.** What about the T/C (endpoint: mean survival time, dose: 100.0 mg/kg/injection, schedule: Q04DX003 (ip), vehicle: other) of the same compound?
**A.** 154 % of control

**Q.** What about the T/C (endpoint: mean survival time, dose: 200.0 mg/kg/injection, schedule: Q01DX009 (ip), vehicle: alkali diluted with water) of the same compound?
**A.** 153 % of control

**Q.** What about the T/C (endpoint: mean survival time, dose: 200.0 mg/kg/injection, schedule: Q04DX003 (ip), vehicle: other) of the same compound?
**A.** 155 % of control and 163 % of control and 203 % of control

**Q.** What about the T/C (endpoint: median survival time, dose: 12.5 mg/kg/injection, schedule: Q01DX009 (oral), vehicle: saline with Tween-80) of the same compound?
**A.** 105 % of control

**Q.** What about the T/C (endpoint: median survival time, dose: 25.0 mg/kg/injection, schedule: Q01DX009 (oral), vehicle: saline with Tween-80) of the same compound?
**A.** 105 % of control

**Q.** What about the T/C (endpoint: median survival time, dose: 50.0 mg/kg/injection, schedule: Q01DX009 (oral), vehicle: saline with Tween-80) of the same compound?
**A.** 103 % of control

**Q.** And the T/C (endpoint: median survival time, dose: 100.0 mg/kg/injection, schedule: Q01DX009 (oral), vehicle: saline with Tween-80)?
**A.** 95 % of control

**Q.** And the T/C (endpoint: median survival time, dose: 200.0 mg/kg/injection, schedule: Q01DX009 (oral), vehicle: saline with Tween-80)?
**A.** 98 % of control

**Q.** What about the T/C (endpoint: median survival time, dose: 400.0 mg/kg/injection, schedule: Q01DX009 (oral), vehicle: saline with Tween-80) of the same compound?
**A.** 105 % of control

**Q.** Which results are given for `CCCC(CCC)=NN=C(CCC)CCC`?
**A.** T/C (endpoint: mean survival time, dose: 25.0 mg/kg/injection, schedule: Q01DX005 (ip), vehicle: saline): 97 % of control; T/C [3]: 95 % of control; T/C (endpoint: mean survival time, dose: 50.0 mg/kg/injection, schedule: Q01DX005 (ip), vehicle: saline): 97 % of control; T/C [1]: 106 % of control; T/C (endpoint: mean survival time, dose: 50.0 mg/kg/injection, schedule: Q04DX002 (ip), vehicle: saline + alcohol): 95 % of control; T/C (endpoint: mean survival time, dose: 100.0 mg/kg/injection, schedule: Q01DX005 (ip), vehicle: saline): 105 % of control; T/C [2]: 91 % of control; T/C (endpoint: mean survival time, dose: 100.0 mg/kg/injection, schedule: Q04DX002 (ip), vehicle: saline + alcohol): 92 % of control; T/C (endpoint: mean survival time, dose: 200.0 mg/kg/injection, schedule: Q01DX005 (ip), vehicle: saline): 97 % of control; T/C (endpoint: mean survival time, dose: 200.0 mg/kg/injection, schedule: Q01DX009 (ip), vehicle: saline with Tween-80): 93 % of control; T/C (endpoint: mean survival time, dose: 200.0 mg/kg/injection, schedule: Q04DX002 (ip), vehicle: saline + alcohol): 88 % of control

**Q.** Which T/C [3] does the source give for `CCCCCCCCC[n+]1cccc(C(N)=O)c1` here?
**A.** 97 % of control

**Q.** What about the T/C [1] of the same compound?
**A.** 101 % of control

**Q.** What about the T/C [2] of the same compound?
**A.** 95 % of control

**Q.** Which T/C (endpoint: mean survival time, dose: 12.5 mg/kg/injection, schedule: Q01DX005 (ip), vehicle: water) does the source give for `OCC1OC(n2ncc3c2ncn2ncnc32)C(O)C1O` (stereo not drawn) here?
**A.** 90 % of control

**Q.** What about the T/C (endpoint: mean survival time, dose: 25.0 mg/kg/injection, schedule: Q01DX005 (ip), vehicle: water) of the same compound?
**A.** 94 % of control

**Q.** What about the T/C (endpoint: mean survival time, dose: 50.0 mg/kg/injection, schedule: Q01DX005 (ip), vehicle: water) of the same compound?
**A.** 101 % of control

**Q.** What about the T/C (endpoint: mean survival time, dose: 100.0 mg/kg/injection, schedule: Q01DX005 (ip), vehicle: water) of the same compound?
**A.** 100 % of control

**Q.** And the T/C (endpoint: mean survival time, dose: 200.0 mg/kg/injection, schedule: Q01DX005 (ip), vehicle: water)?
**A.** 113 % of control

**Q.** For `CC(C)=[C-]N(C)C.[C-]#[O+].[C-]#[O+].[C-]#[O+].[C-]#[O+].[C-]#[O+].[Mn]`, which T/C (endpoint: mean survival time, dose: 12.5 mg/kg/injection, schedule: Q04DX002 (ip), vehicle: saline with Tween-80) is on record?
**A.** 110 % of control

**Q.** And the T/C (endpoint: mean survival time, dose: 25.0 mg/kg/injection, schedule: Q04DX002 (ip), vehicle: saline with Tween-80)?
**A.** 103 % of control
